# Where “and” joins values, the source holds several entries; their conditions need not be identical. Identical values can stand only once.
# Target: T1, HiBiT-SOCS2 fusion in HeLa cells (Homo sapiens, UniProt O14508)
# T1 construct: encoding SOCS2 (32–198) in pBiT3.1-N expression vector; expressed in transfected cells; host or cells: HeLa
# Assay: Split-NanoLuc CETSA, live-cell mode
# Type: cell-based
# Set-up: Produrg CETSA screening, raw signal: reference not given here
# Details: for Produrg CETSA screening, raw signal: 50uM 20hrs; for Tagg shift, live-cell CETSA: HeLa cells; for Tagg shift, live-cell CETSA / ΔT: 50 μM, 20 h; for ΔT / ΔT, individual replicates n1-n3: Prodrug screen CETSA; for ΔT: live HeLa cells, Mean n = 3
# Experimental: One of the challenges with small-molecule binders displaying on-target activity with recombinant proteins, is to translate their utility to a cellular context. […] One of the advantages of CETSA is that target engagement can be monitored without the need for the development of a cell-permeable tracer molecule.
# We utilized CETSA in a live-cell mode to evaluate the efficacy and rank the different prodrugs. We treated live HeLa cells with 50 μM compound (prodrugs) for 20 h and monitored Tagg shift as a proxy for the combo of prodrug permeability and unmasking (Fig. 4d). […] The observation could be because the POM group unmasking requires only esterase unlike the reliance of compounds 21–23 on esterase and phosphoramidase for unmasking an aryloxy phosphoramidate group.
# N-terminal HiBiT-SOCS2 fusion was generated by encoding SOCS2 (32–198) in pBiT3.1-N expression vector (Promega). The transfection and target engagement assay were performed by modifying a NanoLuc target engagement protocol (Promega) with some small modifications. Briefly, HiBiT-SOCS2 fusion construct was transfected into HeLa cells using FuGENE HD (Promega) according to the manufacturer’s protocol. HiBiT-SOCS2 fusion construct was diluted into Transfection Carrier DNA (Promega) at a mass ratio of 1:100 or 1:10 for permeabilised and live-cell CETSA respectively. FuGENE HD was added at a ratio of 1:3 (μg DNA: μL FuGENE HD). 1 part (vol) of FuGENE HD complexes thus formed were combined with 20 parts (vol) of HeLa cells suspended at a density of 2 × 10^5 cells/mL, followed by incubation in a humidified, 37 °C + 5% CO2 incubator. After 20 h of incubation HeLa cells were detached and resuspended at a density of 2.5 × 10^5 cells/mL in Opti-MEM media without serum or phenol red but supplemented with protease inhibitor cocktail (Roche). Compounds stocks were added to cell suspension to maintain a final DMSO concentration of 1%. For the permeabilised assay format, 96-well PCR plates (Thermo) were pre-treated with digitonin to have a final well concentration of 50 μg/ml. 50 μl Opti-MEM cell suspension was then aliquoted to each well of the 96-well plate. The plates are then covered with microporous tape sheet (Qiagen) prior to incubation in a humidified, 37 °C + 5% CO2 incubator. Post-incubation we heat the PCR plates in 16-point temperature (split across two runs) curve spanning degrees 40-72 °C temperature span (CFX96 Touch Real-Time PCR Detection System, BioRad). The thermal cycler block was allowed to rise to the designated temperatures prior to placement of the PCR plates into the heating block and heat treatment for 3 min. After incubating the plates at room temperature for over 3 min, 50 μl of the Nano-Glo HiBiT Lytic mix (Promega) was added to each well. Samples were mixed by pipetting and placing the plate on an orbital shaker (600 rpm) for 5 min. 20 μl of the samples (in triplicates) were transferred to a AlphaPlate-384 plate (Perkin Elmer). Luminescence was recorded with GloMax Discover Microplate Reader (Promega). To generate apparent Tagg curves, the data is first converted to percent stabilized by relating the observed luminescence to the luminescence of the lowest temperature (40 °C) for that given sample. Data are then fitted to obtain apparent Tagg values using the Boltzmann Sigmoid equation using Graphpad Prism 9.
# [1] = n=1, temperature point 4 of 16, temperature not given
# [2] = n=1, temperature point 5 of 16, temperature not given
# [3] = n=1, temperature point 6 of 16, temperature not given
# [4] = n=1, temperature point 7 of 16, temperature not given
# [5] = n=1, temperature point 8 of 16, temperature not given
# [6] = n=1, temperature point 9 of 16, temperature not given
# [7] = n=1, temperature point 10 of 16, temperature not given
# [8] = n=1, temperature point 11 of 16, temperature not given
# [9] = n=1, temperature point 12 of 16, temperature not given
# [10] = n=1, temperature point 13 of 16, temperature not given
# [11] = n=1, temperature point 14 of 16, temperature not given
# [12] = n=1, temperature point 15 of 16, temperature not given
# [13] = n=1, temperature point 16 of 16, temperature not given
# [14] = n=2, temperature point 1 of 16, temperature not given
# [15] = n=2, temperature point 2 of 16, temperature not given
# [16] = n=2, temperature point 3 of 16, temperature not given
# [17] = n=2, temperature point 5 of 16, temperature not given
# [18] = n=2, temperature point 6 of 16, temperature not given
# [19] = n=2, temperature point 7 of 16, temperature not given
# [20] = n=2, temperature point 8 of 16, temperature not given
# [21] = n=2, temperature point 9 of 16, temperature not given
# [22] = n=2, temperature point 10 of 16, temperature not given
# [23] = n=2, temperature point 11 of 16, temperature not given
# [24] = n=2, temperature point 12 of 16, temperature not given
# [25] = n=2, temperature point 13 of 16, temperature not given
# [26] = n=2, temperature point 14 of 16, temperature not given
# [27] = n=2, temperature point 15 of 16, temperature not given
# [28] = n=2, temperature point 16 of 16, temperature not given
# T1 sequence (O14508 32-198): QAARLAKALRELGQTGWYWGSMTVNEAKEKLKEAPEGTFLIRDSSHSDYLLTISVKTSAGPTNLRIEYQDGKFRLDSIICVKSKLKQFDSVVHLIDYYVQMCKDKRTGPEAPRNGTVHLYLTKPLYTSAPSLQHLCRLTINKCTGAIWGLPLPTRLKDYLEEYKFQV
# T1 sequence (Q15370 whole entry, further chain, the tested form may be a part): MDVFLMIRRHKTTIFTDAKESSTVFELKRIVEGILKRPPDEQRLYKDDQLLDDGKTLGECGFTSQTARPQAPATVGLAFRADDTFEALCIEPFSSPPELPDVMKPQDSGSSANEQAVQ
# T1 sequence (Q15369 whole entry, further chain, the tested form may be a part): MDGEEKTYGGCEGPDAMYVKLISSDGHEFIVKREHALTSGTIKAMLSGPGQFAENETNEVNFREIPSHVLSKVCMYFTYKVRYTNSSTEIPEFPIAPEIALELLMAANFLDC
structure (smiles),measurement,setting,value
O=C(CCl)Nc1cccc(CNC(=O)[C@H](Cc2ccc(OP(=O)(O)O)cc2)NC(=O)Cc2ccc(F)cc2)c1 [MN551],"Produrg CETSA screening, raw signal",[1],51906 and 74271 and 83631
same,"Produrg CETSA screening, raw signal",[2],62246 and 51464 and 85761
same,"Produrg CETSA screening, raw signal",[3],108788 and 87275 and 106856
same,"Produrg CETSA screening, raw signal",[4],132974 and 140531 and 140435
same,"Produrg CETSA screening, raw signal",[5],134181 and 150079 and 139460
same,"Produrg CETSA screening, raw signal",[6],189390 and 210146 and 247725
same,"Produrg CETSA screening, raw signal",[7],222849 and 214562 and 260657
same,"Produrg CETSA screening, raw signal",[8],306316 and 347377 and 363834
same,"Produrg CETSA screening, raw signal",[9],497790 and 541910 and 544913
same,"Produrg CETSA screening, raw signal",[10],482302 and 510836 and 519812
same,"Produrg CETSA screening, raw signal",[11],563762 and 585700 and 590798
same,"Produrg CETSA screening, raw signal",[12],665581 and 663053 and 701220
same,"Produrg CETSA screening, raw signal",[13],691060 and 708174 and 757604
same,"Produrg CETSA screening, raw signal",[14],29701 and 32684 and 58114
same,"Produrg CETSA screening, raw signal",[15],46564 and 62785 and 77591
same,"Produrg CETSA screening, raw signal",[16],123506 and 129184 and 115193
same,"Produrg CETSA screening, raw signal",[17],47087 and 55743 and 78578
same,"Produrg CETSA screening, raw signal",[18],98105 and 105595 and 117544
same,"Produrg CETSA screening, raw signal",[19],144950 and 158240 and 171572
same,"Produrg CETSA screening, raw signal",[20],135100 and 139766 and 168368
same,"Produrg CETSA screening, raw signal",[21],229091 and 227474 and 261588
same,"Produrg CETSA screening, raw signal",[22],267450 and 271378 and 303431
same,"Produrg CETSA screening, raw signal",[23],327561 and 343740 and 362839
same,"Produrg CETSA screening, raw signal",[24],483965 and 500271 and 541590
same,"Produrg CETSA screening, raw signal",[25],506853 and 509845 and 531489
same,"Produrg CETSA screening, raw signal",[26],591756 and 578279 and 588133
same,"Produrg CETSA screening, raw signal",[27],597206 and 580381 and 582472
same,"Produrg CETSA screening, raw signal",[28],620665 and 663583 and 665832
same,"Produrg CETSA screening, raw signal","n=3, Temp, 0C 59.2",55622
same,"Produrg CETSA screening, raw signal","n=3, Temp, 0C 62.3",33828 and 45066 and 46746
same,"Produrg CETSA screening, raw signal","n=3, Temp, 0C 66.1",15770 and 17572 and 22773
same,"Produrg CETSA screening, raw signal","n=3, Temp, 0C 69.3",14086 and 13763 and 18636
same,"Produrg CETSA screening, raw signal","n=3, Temp, 0C 71.1",13296 and 19284 and 20568
same,"Produrg CETSA screening, raw signal","n=3, Temp, 0C 72",12696 and 17884 and 19057
same,"Tagg shift, live-cell CETSA",,2 °C
same,ΔT,,1.99 oC
same,"ΔT, individual replicates n1-n3",single replicates,0.38 oC and 4.34 oC and 1.24 oC
CC(C)(C)C(=O)OCOP(=O)(OCOC(=O)C(C)(C)C)Oc1ccc(C[C@H](NC(=O)Cc2ccc(F)cc2)C(=O)NCc2cccc(NC(=O)CCl)c2)cc1 [MN714],"Produrg CETSA screening, raw signal",[1],54032 and 80376 and 105532
same,"Produrg CETSA screening, raw signal",[2],90582 and 99338 and 174703
same,"Produrg CETSA screening, raw signal",[3],139751 and 167289 and 205811
same,"Produrg CETSA screening, raw signal",[4],195985 and 234426 and 281536
same,"Produrg CETSA screening, raw signal",[5],244882 and 229067 and 241218
same,"Produrg CETSA screening, raw signal",[6],256289 and 277913 and 306068
same,"Produrg CETSA screening, raw signal",[7],320763 and 321677 and 363535
same,"Produrg CETSA screening, raw signal",[8],372242 and 395029 and 425781
same,"Produrg CETSA screening, raw signal",[9],423872 and 436050 and 431053
same,"Produrg CETSA screening, raw signal",[10],366601 and 377426 and 420904
same,"Produrg CETSA screening, raw signal",[11],362714 and 367767 and 404526
same,"Produrg CETSA screening, raw signal",[12],419874 and 426204 and 438598
same,"Produrg CETSA screening, raw signal",[13],418575 and 457050 and 469972
same,"Produrg CETSA screening, raw signal",[14],80745 and 156547 and 107330
same,"Produrg CETSA screening, raw signal",[15],108259 and 123901 and 132020
same,"Produrg CETSA screening, raw signal",[16],72847 and 107017 and 131297
same,"Produrg CETSA screening, raw signal","n=2, temperature point 4 of 16, temperature not given",98808 and 124869 and 145900
same,"Produrg CETSA screening, raw signal",[17],73033 and 127162 and 126167
same,"Produrg CETSA screening, raw signal",[18],163432 and 190209 and 191740
same,"Produrg CETSA screening, raw signal",[19],242162 and 237309 and 241895
same,"Produrg CETSA screening, raw signal",[20],244528 and 287537 and 296136
same,"Produrg CETSA screening, raw signal",[21],280328 and 320314 and 333974
same,"Produrg CETSA screening, raw signal",[22],308215 and 329369 and 371393
same,"Produrg CETSA screening, raw signal",[23],342961 and 395565 and 371949
same,"Produrg CETSA screening, raw signal",[24],424106 and 411160 and 460047
same,"Produrg CETSA screening, raw signal",[25],397001 and 430594 and 470735
same,"Produrg CETSA screening, raw signal",[26],424646 and 453700 and 455391
same,"Produrg CETSA screening, raw signal",[27],402201 and 445060 and 429166
same,"Produrg CETSA screening, raw signal",[28],423530 and 445088 and 469114
same,"Produrg CETSA screening, raw signal","n=3, Temp, 0C 62.3",15991
same,"Produrg CETSA screening, raw signal","n=3, Temp, 0C 66.1",13409 and 15862 and 18690
same,"Produrg CETSA screening, raw signal","n=3, Temp, 0C 69.3",10941 and 16787 and 17374
same,"Produrg CETSA screening, raw signal","n=3, Temp, 0C 71.1",8072 and 11559 and 15104
same,"Produrg CETSA screening, raw signal","n=3, Temp, 0C 72",10040 and 12206 and 15596
same,EC50,"2 hours EC50, MN714 dose response CETSA, Mean",3.77 µM
same,EC50,"2 hours EC50, individual replicates n1-n4, MN714 dose response CETSA, single replicates",2.69 µM and 3.55 µM and 5.05 µM
same,EC50,"8 hours EC50, MN714 dose response CETSA, Mean",2.52 µM
same,EC50,"8 hours EC50, individual replicates n1-n4, MN714 dose response CETSA, single replicates",1.93 µM and 3.11 µM and 0.902 µM and 4.13 µM
same,EC50,"EC50, live-cell CETSA, 2 h of treatment",3.8 µM
same,EC50,"EC50, live-cell CETSA, 8 h of treatment",2.5 µM
same,"Tagg shift, live-cell CETSA",,consistent superior SOCS2 engagement
same,ΔT,,4.89 oC
same,"ΔT, individual replicates n1-n3",single replicates,4.83 oC and 5.25 oC and 4.59 oC

# Source: PMC10564737, “Structure-based design of a phosphotyrosine-masked covalent ligand targeting the E3 ligase SOCS2” (Nature Communications, 2023)
